Measurements reported in article PMC4045134, “Discovery of Triterpenoids as Reversible Inhibitors of α/β-hydrolase Domain Containing 12 (ABHD12)” (PLoS ONE, 2014).

Experiments:
Type in all cases: biochemical
CB1R [1] = target: T1, CB1R (Rattus norvegicus, UniProt P20272); assay: [35S]GTPγS binding, CB1R agonist activity, rat cerebellar membranes; conditions: for CB1R agonist activity [35S]GTPγS binding % Basal (Mean (range), n=2): 10 µM
T1 construct: membranes prepared from brain tissue of 4-week-old male rodents were used; from tissue; host or cells: rat cerebellar membranes
T1 sequence (P20272 whole entry): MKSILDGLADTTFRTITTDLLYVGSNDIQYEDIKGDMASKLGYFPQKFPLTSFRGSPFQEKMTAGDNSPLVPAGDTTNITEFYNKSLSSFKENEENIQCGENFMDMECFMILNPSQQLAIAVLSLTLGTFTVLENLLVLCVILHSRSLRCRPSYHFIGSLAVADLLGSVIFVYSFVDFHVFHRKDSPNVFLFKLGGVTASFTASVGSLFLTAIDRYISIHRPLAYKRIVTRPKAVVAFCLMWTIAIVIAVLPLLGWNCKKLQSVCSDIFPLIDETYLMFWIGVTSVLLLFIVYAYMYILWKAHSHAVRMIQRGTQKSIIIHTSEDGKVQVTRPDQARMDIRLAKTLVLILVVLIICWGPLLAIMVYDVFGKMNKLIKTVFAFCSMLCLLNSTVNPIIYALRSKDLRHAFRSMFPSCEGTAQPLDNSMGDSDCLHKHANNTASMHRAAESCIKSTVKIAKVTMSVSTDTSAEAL
Experimental: (§1) The CB1 and CB2 receptor activity of the selected compounds (10 µM) were measured using the GTPγS binding assay according to the previously described methods, [33].
(§2) For ABPP experiments (Figure 6C) and cannabinoid receptor activity assays (Table S2), membranes prepared from brain tissue of 4-week-old male rodents were used. The animals were obtained from the National Laboratory Animal Centre, University of Eastern Finland. Approval for the harvesting of animal tissue was obtained from the local welfare officer of the University of Eastern Finland.

hABHD12 [2] = target: T2, hABHD12 (Homo sapiens, UniProt Q8N2K0); assay: LC-MS assay of ABHD12 activity (1-AG utilization / AA formation) in hABHD12-HEK293 lysates; conditions: n = 2, dose-response by LC-MS; for IC50: s.d.
T2 construct: expressed in transfected cells; host or cells: HEK293 (transient)
T2 sequence (Q8N2K0 1-398): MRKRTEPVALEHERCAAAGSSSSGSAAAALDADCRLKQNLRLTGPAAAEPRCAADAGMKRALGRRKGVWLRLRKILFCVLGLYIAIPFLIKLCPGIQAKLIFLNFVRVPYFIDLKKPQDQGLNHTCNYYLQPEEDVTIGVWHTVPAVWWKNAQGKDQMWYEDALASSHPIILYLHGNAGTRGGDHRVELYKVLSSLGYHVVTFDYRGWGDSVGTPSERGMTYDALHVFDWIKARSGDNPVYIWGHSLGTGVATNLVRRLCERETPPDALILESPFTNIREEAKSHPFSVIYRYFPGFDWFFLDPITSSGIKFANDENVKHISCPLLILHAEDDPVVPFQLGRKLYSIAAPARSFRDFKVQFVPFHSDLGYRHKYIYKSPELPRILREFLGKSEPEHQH
Experimental: The fluorescent glycerol assay was mimicked otherwise but instead of assaying glycerol, utilization of 1-AG and concomitant formation of AA was monitored by LC-MS analysis. […] Enzymatic reaction was stopped by adding 400 µL of cold 11 mM H3PO4 in acetonitrile. 150 µL aliquots were filtered using Captiva 96-well filter plate (0.2 µm, Agilent Technologies, USA) into the Captiva 96-well collection plate (Agilent Technologies, USA) containing 50 µL of 0.1% formic acid in H2O. The collection plate was centrifuged at 4°C for 10 minutes and the samples were analyzed by LC-MS. HPLC system consisted of an Agilent 1200 Series Rapid Resolution LC System (Agilent Technologies, Waldbronn, Germany) with a solvent micro vacuum degasser, a binary pump, a thermostatted column compartment, and an autosampler. The mass analysis was made with an Agilent 6410 Triple Quadrupole MS equipped with an electrospray ionization (ESI) source (Agilent Technologies, Palo Alto, CA, USA). Five microliters of the sample solution were injected onto a reversed-phase HPLC column (Zorbax Eclipse XDB-C18 Rapid Resolution HT 2.1 mm×50 mm, 1.8 µm) (Agilent Technologies, Palo Alto, CA, USA) using an isocratic mobile phase consisting of 0.1% formic acid in a solution of H2O and methanol (20∶80 v/v) delivered at 0.5 mL/min. Column temperature was maintained at 50°C and the autosampler tray temperature was set at 4°C. The following ionization conditions were used for 1-AG: positive ESI mode, drying gas (nitrogen) temperature 300°C, drying gas flow rate 8 L/min, nebulizer pressure 40 psi, and capillary voltage 4000 V. The following ionization conditions were used for AA: negative ESI mode, drying gas (nitrogen) temperature 300°C, drying gas flow rate 8 L/min, nebulizer pressure 40 psi, and capillary voltage 4000 V. Analyte detection was performed using multiple reaction monitoring (MRM) with the following transitions: m/z 379 → 287 for 1-AG and m/z 303 → 303 for AA. Fragmentor voltage and collision energy for 1-AG and AA were 130 V/8 V and 175 V/2 V, respectively. […] In addition, the 2-AG positional isomer is chromatographically separated from 1-AG with retention time 2.1 min, and the peak areas of 1-AG and 2-AG were subsequently combined for all quantitative analyses reported and are thus collectively termed “1-AG”. The calibration range of 0.1–2,000 ng/mL and 0.1–1,000 ng/mL was prepared for monitored 1-AG and AA, respectively. The lower limit of quantification (LLOQ) for both analytes, 1-AG and AA, was 1.0 ng/mL.

CB1R [3] = target: T1, CB1R; assay: [35S]GTPγS binding, CB1R antagonist activity, rat cerebellar membranes; conditions: 10 µM
Experimental: as §1, §2

hCB2R = target: T3, hCB2R (Homo sapiens, UniProt P34972); assay: [35S]GTPγS binding, CB2R agonist activity, hCB2R-CHO cell membranes
T3 construct: expressed in transfected cells; host or cells: CHO
T3 sequence (P34972 whole entry): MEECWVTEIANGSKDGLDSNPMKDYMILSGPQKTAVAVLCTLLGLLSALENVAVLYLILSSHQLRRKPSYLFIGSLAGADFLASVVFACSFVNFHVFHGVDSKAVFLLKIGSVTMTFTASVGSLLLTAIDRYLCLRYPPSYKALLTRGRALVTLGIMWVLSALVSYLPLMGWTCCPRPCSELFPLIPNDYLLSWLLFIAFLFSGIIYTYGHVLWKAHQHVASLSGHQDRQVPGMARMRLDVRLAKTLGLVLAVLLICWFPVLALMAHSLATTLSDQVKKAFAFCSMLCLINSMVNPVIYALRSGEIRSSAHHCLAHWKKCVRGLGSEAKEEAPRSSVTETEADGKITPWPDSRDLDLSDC

hABHD6 = target: T4, hABHD6 (Homo sapiens, UniProt Q9BV23); assay: Fluorescent glycerol assay in hABHD6-HEK293 lysates; conditions: for remaining activity at 10 µM: NI = no inhibition at 10 µM, read-out: hABHD6 Remaining activity % control ± s.e.m (n=3)
T4 construct: expressed in transfected cells; host or cells: HEK293 (transient)
T4 sequence (Q9BV23 1-337): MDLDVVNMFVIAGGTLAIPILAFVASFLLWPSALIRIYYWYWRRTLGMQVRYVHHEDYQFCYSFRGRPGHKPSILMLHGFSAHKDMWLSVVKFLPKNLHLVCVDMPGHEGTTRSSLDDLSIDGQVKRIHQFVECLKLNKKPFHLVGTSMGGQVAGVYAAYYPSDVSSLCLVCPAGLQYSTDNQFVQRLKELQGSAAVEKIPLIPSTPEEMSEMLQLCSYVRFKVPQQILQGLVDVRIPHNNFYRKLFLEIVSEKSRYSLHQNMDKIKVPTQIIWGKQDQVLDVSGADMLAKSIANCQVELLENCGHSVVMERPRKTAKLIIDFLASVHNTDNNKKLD
Experimental: (§3) Glycerol liberated from 1-AG hydrolysis was determined with a sensitive fluorescent assay using lysates of HEK293 cells with transient overexpression of hABHD12, hABHD6 or hMAGL, essentially as previously described. […] Fluorescence (λex 530; λem 590 nm) was monitored using a Tecan Infinite M200 plate reader (Tecan Group Ltd., Männedorf, Switzerland). Inhibitory activities of selected compounds towards FAAH were determined using membranes of hFAAH overexpressing COS-7 cells, essentially as previously described. The final incubation volume (100 µL) contained 1 µg of protein and the substrate concentration was 20 µM (10 nM of ^3H-anandamide having specific activity of 60 Ci/mmol and concentration of 1 mCi/mL).

hFAAH = target: T5, hFAAH (Homo sapiens, UniProt O00519); assay: FAAH activity, membranes of hFAAH overexpressing COS-7 cells, 3H-anandamide; conditions: read-out: hFAAH Remaining activity % control (mean (range)), n=2
T5 construct: expressed in transfected cells; host or cells: COS-7
T5 sequence (O00519 1-579): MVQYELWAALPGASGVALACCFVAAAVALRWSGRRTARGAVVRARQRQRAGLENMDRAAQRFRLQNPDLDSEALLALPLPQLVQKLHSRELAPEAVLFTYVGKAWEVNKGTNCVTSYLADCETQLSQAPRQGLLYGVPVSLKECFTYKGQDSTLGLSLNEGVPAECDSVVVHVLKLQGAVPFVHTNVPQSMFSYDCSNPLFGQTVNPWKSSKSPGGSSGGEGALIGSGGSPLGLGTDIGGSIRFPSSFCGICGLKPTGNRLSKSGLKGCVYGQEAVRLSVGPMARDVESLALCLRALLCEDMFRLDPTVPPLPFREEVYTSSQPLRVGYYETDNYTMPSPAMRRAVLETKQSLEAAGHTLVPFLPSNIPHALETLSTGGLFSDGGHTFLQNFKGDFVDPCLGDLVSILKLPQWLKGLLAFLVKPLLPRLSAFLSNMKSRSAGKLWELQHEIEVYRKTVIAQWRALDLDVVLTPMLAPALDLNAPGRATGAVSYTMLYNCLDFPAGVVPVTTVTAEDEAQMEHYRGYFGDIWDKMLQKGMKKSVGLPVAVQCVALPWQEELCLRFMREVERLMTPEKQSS
Experimental: as §3

hMAGL = target: T6, hMAGL (Homo sapiens, UniProt Q99685); assay: Fluorescent glycerol assay in hMAGL-HEK293 lysates; conditions: for remaining activity at 10 µM: read-out: hMAGL Remaining activity % control ± s.e.m (n=3)
T6 construct: expressed in transfected cells; host or cells: HEK293 (transient)
T6 sequence (Q99685 1-303): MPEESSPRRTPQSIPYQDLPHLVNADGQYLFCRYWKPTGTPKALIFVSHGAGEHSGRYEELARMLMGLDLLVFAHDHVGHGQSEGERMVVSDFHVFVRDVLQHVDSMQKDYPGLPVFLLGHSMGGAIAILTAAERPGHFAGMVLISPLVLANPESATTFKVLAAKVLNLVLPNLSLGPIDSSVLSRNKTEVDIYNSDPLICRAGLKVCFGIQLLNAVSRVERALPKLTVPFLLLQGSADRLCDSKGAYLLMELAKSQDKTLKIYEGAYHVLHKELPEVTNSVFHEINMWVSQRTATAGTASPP
Experimental: as §3

hABHD12 [4] = target: T2, hABHD12; assay: Fluorescent glycerol assay of 1-AG hydrolysis in hABHD12-HEK293 lysates; conditions: for Emax: read-out: max inhibition (converted)
Experimental: as §3

hABHD12 [5] = target: T2, hABHD12; assay: Reversibility testing, 40-fold dilution of enzyme-inhibitor complex; conditions: time points 10, 20, 30, 60 and 90 min
Experimental: Reversibility testing was carried out as previously described. Briefly, DMSO/inhibitor (0.5 µl) was incubated together with hABHD12-HEK293 lysate (4.5 µl, 0.3 µg protein/well) in TEMN-BSA buffer for 30 min. After this, a 40-fold dilution of enzyme-inhibitor complex was brought about by addition of the substrate [1-AG, 12.5 µM final concentration, containing additionally 1% EtOH (v/v)] in 195 µl of glycerol assay mix and fluorescence was kinetically monitored at 10 min intervals for 90 min at RT.

[6] = hABHD12-HEK293 lysates, three independent experiments, read-out: -logIC50±s.e.m. (converted)

Structure (SMILES): C=C(C)[C@@H]1CC[C@]2(C(=O)O)CC[C@]3(C)[C@H](CC[C@@H]4[C@@]5(C)CC[C@H](O)C(C)(C)[C@@H]5CC[C@]43C)[C@@H]12 [Compound 1, Betulinic acid, reference compound]
- CB1R agonist activity [35S]GTPγS binding % Basal (Mean (range), n=2) (CB1R [1]): 91 (87-96) % Basal
- IC50 (hABHD12 [2]): 2510 nM
- CB1R antagonist activity [35S]GTPγS binding % HU210-evoked response (Mean (range), n=2) (CB1R [3]): 99 (98-99) % HU210-evoked response
- CB2R agonist activity [35S]GTPγS binding % Basal (Mean (range), n=2) (hCB2R; 10 µM): 132 (106-158) % Basal
- remaining activity at 10 µM (hABHD6): ~70%
- remaining activity at 10 µM (hFAAH): 83%
- remaining activity at 10 µM (hMAGL): 76.7 ± 0.1%

Structure (SMILES): C[C@H]1[C@H](C)CC[C@]2(C(=O)O)CC[C@]3(C)C(=CC[C@@H]4[C@@]5(C)CC[C@H](O)C(C)(C)[C@@H]5CC[C@]43C)[C@H]12 [Compound 4, Ursolic acid, reference compound]
- hABHD12 inhibitory activity (in words) (hABHD12 [4]): selectively inhibit ABHD12
- remaining activity at 10 µM (hABHD12 [4]; hABHD12-HEK293 lysates, 10 µM, NI = no inhibition, read-out: Remaining activity at 10 µM % ± s.e.m.): ~30%
- IC50 (hABHD12 [2]): 1820 nM
- effect on ABHD6 activity (hABHD6; preliminary screening): negligible effect
- effect on MAGL activity (hMAGL; preliminary screening): negligible effect

Structure (SMILES): C=C(C)[C@@H]1CC[C@]2(C(=O)O)CC[C@]3(C)[C@H](CC[C@@H]4[C@@]5(C)CCC(=O)C(C)(C)[C@@H]5CC[C@]43C)[C@@H]12 [Compound 18]
- max inhibition (hABHD12 [2]): 100%
- IC50 (hABHD12 [2]): 3310 nM

Structure (SMILES): C=C(C)[C@@H]1CC[C@]2(C=NO)CC[C@]3(C)[C@H](CC[C@@H]4[C@@]5(C)CCC(=NO)C(C)(C)[C@@H]5CC[C@]43C)[C@@H]12 [Compound 25]
- max inhibition (hABHD12 [2]): 76%
- IC50 (hABHD12 [2]): 3980 nM
- remaining activity at 10 µM (hABHD6): 103 ± 2.3%
- remaining activity at 10 µM (hFAAH): 97%
- remaining activity at 10 µM (hMAGL): 88.7 ± 4.2%

Structure (SMILES): C=C(C)C1CCC2(C(=O)O)CCC3(C)C(CCC4C5(C)Cc6c([nH]c7ccccc67)C(C)(C)C5CCC43C)C12 (stereo not shown) [Compound 33]
- CB1R agonist activity [35S]GTPγS binding % Basal (Mean (range), n=2) (CB1R [1]): 95 (94-96) % Basal
- IC50 (hABHD12 [4]; [6]): 933 nM
- IC50 (hABHD12 [4]; hABHD12-HEK293 lysates, read-out: IC50): 900 nM
- Emax (hABHD12 [4]; hABHD12-HEK293 lysates): 65%
- CB1R antagonist activity [35S]GTPγS binding % HU210-evoked response (Mean (range), n=2) (CB1R [3]): 97 (96-98) % HU210-evoked response
- CB2R agonist activity [35S]GTPγS binding % Basal (Mean (range), n=2) (hCB2R; 10 µM): 102 (90-114) % Basal
- remaining activity at 10 µM (hABHD6): 81 ± 4.3%
- time-dependency of inhibitor potency (IC50) after 40-fold dilution (hABHD12 [5]): time-dependent drop of inhibitor potency
- remaining activity at 10 µM (hFAAH): 90%
- remaining activity at 10 µM (hMAGL): 74.8 ± 4.6%

Structure (SMILES): C=C(C)[C@@H]1CC[C@]2(C(=O)O)CC[C@]3(C)[C@H](CC[C@@H]4[C@@]5(C)Cc6c([nH]c7ccc(OC)cc67)C(C)(C)[C@@H]5CC[C@]43C)[C@@H]12 [Compound 34]
- IC50 (hABHD12 [4]; [6]): 1620 nM
- Emax (hABHD12 [4]; hABHD12-HEK293 lysates): 100%
- time-dependency of inhibitor potency (IC50) after 40-fold dilution (hABHD12 [5]): time-dependent drop of inhibitor potency

Structure (SMILES): CCCCCCC(C)(C)c1cc(O)c2c(c1)OC(C)(C)[C@@H]1CC=C(CO)C[C@@H]21 [HU210]
- CB1R agonist activity [35S]GTPγS binding % basal ± SEM, n > 3 (CB1R [1]; reference compound at 1 µM): 430 ± 36 % Basal
- CB2R agonist activity [35S]GTPγS binding % Basal (Mean (range), n=2) (hCB2R; 10 nM): 354 (348-361) % Basal
